Data set [1] in a line: Metabolic clearance in rat hepatocyte assessed as clearance measured per 10^6 cells. Type of data set: ADME, cell-based. Conditions: hepatocytes, read-out: CLH.
A further data set has as its system Hepatocyte. The data set can be described thus: Metabolic clearance in human hepatocyte assessed as clearance. Conditions: hepatocytes. In kind it is ADME, cell-based.

In ChEMBL document CHEMBL5150038, “Small-Molecule Receptor-Interacting Protein 1 (RIP1) Inhibitors as Therapeutic Agents for Multifaceted Diseases: Current Medicinal Chemistry Insights and Emerging Opportunities” (J Med Chem, 2022) one finds hepatocyte CLint and CLH data, which are given here for one compound.

`O=C(c1cnn(Cc2ccccc2)c1)N1CCOc2ccccc2C1`: the hepatocyte CLint in data set [1] was determined as 87 µL/min/1e6 cells. Further, in the data set with Hepatocyte, the CLH turned out to be 42 µL/min/mg.
